# In PMC3030572, “Antamanide, a Derivative of Amanita phalloides, Is a Novel Inhibitor of the Mitochondrial Permeability Transition Pore” (PLoS ONE, 2011):
# Test system: mitochondrial permeability transition pore (PTP), CyP-D knock-out fibroblasts
# Assay: CRC assay, mitochondria isolated from CyP-D knock-out mouse fibroblasts
# Assay type: biochemical
# Details: 25°C, Figure 3B
# Procedure: Figure 3 Effect of AA on respiration and PTP opening in mitochondria of wild-type or CyP-D knock-out mouse fibroblasts. A, upper part: Western blot analysis assessing CyP-D expression in fibroblasts obtained from either wild-type or CyP-D knock-out mice; HKII was utilized to verify protein load; lower part: representative experiment showing oxygen consumption as assessed by polarography (see Methods) in mitochondria isolated from wild-type fibroblasts in the absence (a) or presence (b) of 8 µM AA. Experiments were started by adding 0.6 mg of mitochondria (Mito), followed by 100 µM ADP and 50 µM 2,4-dinitrophenol (DNP) (arrows). Each experiment was repeated at least three times. Oxygen consumption is reported as percentage of initial value on the y axis. B, bar graphs report the ratio between the CRC detected in the presence (CRC) and absence (CRC0) of increasing concentrations of AA, in mitochondria from either wild-type fibroblasts (left) or CyP-D knock-out fibroblasts (right). […] Results are mean±SD of at least 4 experiments.
# Mitochondria were isolated either from livers of C57BL/6 mice through sequential centrifugations, or from cells, as described. To obtain mitochondria, cells were disrupted with a glass-Teflon potter in a buffer composed by 250 mM sucrose, 10 mM Tris-HCl, 0.1 mM EGTA-Tris, pH 7.4. […]
# PTP opening was detected as a fluorescence increase.
substance,measurement,value
Antamanide [AA],PTP inhibition (CRC),totally ineffective
